In patent publication US8901176B2, “Methods for treatment of Parkinson's disease” (Newron Pharmaceuticals, S.P.A., priority 2003, dated 2014):

Legend:
[1] = test system: patients affected by idiopathic early Parkinson's disease; assay: Phase II dose finding, double-blind, placebo controlled 12-week study: efficacy (UPDRS section III responder rate, CGI); assay type: in vivo, human; details: for Non Responders, % / Responders, % / Responder rate (improvement of at least 30% in UPDRS section III): final visit; for Responder rate at final visit, %: 12 weeks, ITT cohort, versus placebo 21.4%
Source text: Mode of administration was oral, once daily; and duration of treatment was 12 weeks. The primary efficacy variable in this study was the proportion of patients considered to have achieved a response defined as an improvement of at least 30% in the unified Parkinson's disease ratings scale (UPDRS) section III score between baseline (Visit 2) and the end of the study (Visit 9 or early study termination).
The intent-to-treat (ITT) cohort was defined as all randomized patients who received at least one dose of study medication and for whom at least one UPDRS section III assessment after treatment was available.
The analysis based on the ITT Cohort was considered a primary analysis and was performed for all parameters except safety parameters.
The per-protocol (PP) cohort was defined as all patients who completed the study without major protocol violations. Minor violations not leading to exclusion from the PP cohort were defined during a blind review meeting after data cleaning. Drop-outs due to lack of efficacy and due to adverse events were not excluded from the PP cohort.
The primary efficacy variable was the percentage of patients with an improvement of at least 30% in the UPDRS section III score between baseline (Visit 2) and the end of the study (Visit 9 or early study termination). Comparison between the treatment groups was performed in the ITT analysis cohort (primary analysis) using a logistic regression model taking into account UPDRS section III score at baseline, the patient's treatment history (de-novo, single dopamine agonist alone, single dopamine agonists with a prior Parkinson's disease treatment) and the country.
The percentage of patients with an improvement of at least 30% in the UPDRS section III score at Visits 5 and 7 was analyzed using the same methods as for the primary efficacy variable.

healthy volunteers [2] = details: 71 healthy volunteers; single doses of 10 mg/kg or 7 days of repeated doses of 5 mg/kg/day; cited from earlier work
rodents given MPTP = details: cited from earlier work
[3] = test system: animal model of wearing off; details: response diminished after 28 days continuous L-dopa treatment; cited from earlier work
primates = details: after 12 week daily administration; cited from earlier work
MAO-B = details: cited from earlier work
[4] = pre-clinical studies; cited from earlier work
healthy volunteers [5] = details: in vivo; cited from earlier work
[6] = test system: patients affected by idiopathic early Parkinson's disease; assay: Phase II dose finding, double-blind, placebo controlled 12-week study: safety (adverse events, vital signs, ECG, laboratory); details: for related adverse events: placebo 25.0%; for percentage of patients with adverse events: placebo 50.0%
Procedure: Safety was monitored by adverse events, vital signs, 12-lead ECG and clinical laboratory variables.
Patients were assigned to the study treatment group as randomized.
The analyses based on the safety cohort were performed for the safety parameters, demographic data and the most important baseline characteristics which were defined in the analysis plan.
Incidences of adverse events were calculated overall, by body system and by preferred term. Vital sign measurements at baseline (Visit 2) were compared to further visits using the Kruskal-Wallis test. All other safety variables were analysed descriptively.

[7] = De Novo subgroup (N = 66), Safinamide 0.5 mg/kg
[8] = De Novo subgroup (N = 66), Safinamide 1.0 mg/kg

Structure (SMILES): C[C@H](NCc1ccc(OCc2cccc(F)c2)cc1)C(N)=O [Safinamide, (+)-(S)-2-[[p-[(m-fluorobenzyl)oxy]-benzyl]amino]propionamide]
- Non Responders, % [1, 7]: 77.3%
- Responders, % [1, 7]: 22.7%
- Non Responders, % [1, 8]: 77.3%
- Responders, % [1, 8]: 22.7%
- Responder rate at final visit, % ([1]; Safinamide 0.5 mg/kg oral once daily, group N = 55, p 0.132): 30.9%
- Responder rate at final visit, % ([1]; Safinamide 1.0 mg/kg oral once daily, group N = 56, p 0.016): 37.5%
- Non Responders, % ([1]; Single DA subgroup (N = 101), Safinamide 0.5 mg/kg add-on): 63.6%
- Non Responders, % ([1]; Single DA subgroup (N = 101), Safinamide 1.0 mg/kg add-on): 52.9%
- Responders, % ([1]; Single DA subgroup (N = 101; stable dopamine agonist treatment), Safinamide 0.5 mg/kg add-on, placebo 20.6%): 36.4%
- Responders, % ([1]; Single DA subgroup (N = 101; stable dopamine agonist treatment), Safinamide 1.0 mg/kg add-on, placebo 20.6%, P = 0.024): 47.1%
- Responder rate (improvement of at least 30% in UPDRS section III) ([1]; patients who received a single dopamine agonist alone, 0.5 mg safinamide, placebo 25.0%): 33.3%
- Responder rate (improvement of at least 30% in UPDRS section III) ([1]; patients who received a single dopamine agonist alone, 1.0 mg safinamide, placebo 25.0%): 50.0%
- Responder rate (improvement of at least 30% in UPDRS section III) ([1]; patients with a dopamine agonist with a prior Parkinson's disease treatment, 0.5 mg safinamide, placebo 14.3%): 40.0%
- Responder rate (improvement of at least 30% in UPDRS section III) ([1]; patients with a dopamine agonist with a prior Parkinson's disease treatment, 1.0 mg safinamide, placebo 14.3%): 43.8%
- changes in CGI part I between baseline (Visit 2) and Visit 6 ([1]; safinamide 0.5 mg/kg group versus other groups, p=0.049, Fisher's exact test): better outcome
- average improvement of patients ([1]; safinamide added to a stabilized dose of a variety of dopamine agonists): 27.8%
- average improvement of patients ([1]; safinamide administered alone): 6.9%
- side effects (healthy volunteers [2]): did not produce any clinically relevant side effect
- nigral neuronal death (rodents given MPTP; given 4 h after the toxin (MPTP) administration): capable of preventing nigral neuronal death
- neostriatal dopamine depletion (rodents given MPTP; given prior to the administration of MPTP): prevented neostriatal dopamine depletion
- motor effect in response to L-dopa [3]: restores the efficacy and duration of the motor effect
- neostriatal dopamine (primates): significant increase of neostriatal dopamine with increased turnover
- inhibition of MAO-B activity (MAO-B): potent, reversible inhibitor
- anticonvulsant activity [4]: broad spectrum of anticonvulsant activity
- amount of i.v. tyramine to raise BP by 30 mm Hg, compared to placebo (cheese effect) (healthy volunteers [5]): equal or greater amount of i.v. tyramine was required
- overall safety (other vital signs, ECG recordings, laboratory parameters) ([6]; 0.5 and 1.0 mg/kg, 12 weeks): no safety concerns were raised
- mean heart rate, change from baseline to the final visit ([6]; other treatment groups (safinamide 0.5 mg/kg, placebo)): a decrease was observed
- tremor aggravated (nervous system disorders, most frequent adverse event) ([6]; safinamide 0.5 mg/kg group): 3.6 % of patients
- patients who experienced serious adverse events ([6]; safinamide 0.5 mg/kg group (atrial fibrillation, pregnancy), unlikely related or not related): Two
- related adverse events ([6]; safinamide 0.5 mg/kg group): 12.5 % of patients
- percentage of patients with adverse events ([6]; safinamide 0.5 mg/kg group): 37.5 % of patients
- nausea (gastrointestinal system disorders, most frequent adverse event) ([6]; safinamide 1.0 mg/kg group): 3.6 % of patients
- patients who experienced serious adverse events ([6]; safinamide 1.0 mg/kg group (myasthenia gravis), not related): one
- mean heart rate, change from baseline to the final visit ([6]; safinamide 1.0 mg/kg group, p=0.037, Kruskal-Wallis test): increased
- related adverse events ([6]; safinamide 1.0 mg/kg group): 10.7 % of patients
- percentage of patients with adverse events ([6]; safinamide 1.0 mg/kg group): 32.1 % of patients
- deaths ([6]; whole study, 0.5 and 1.0 mg/kg groups): No deaths were reported
